Each molecule was assayed against SHP2 (Homo sapiens (Human), UniProt Q06124) (assay: SHP2 allosteric inhibition experiment (DiFMUP fluorescence)). Details: 0.5 nM SHP2 activated with 0.5 μM peptide IRS1_pY1172(dPEG8)pY1222; substrate DiFMUP; 25° C.; read-out: IC50 values of compounds inhibiting SHP2.
Sequence of SHP2 (Q06124 whole entry): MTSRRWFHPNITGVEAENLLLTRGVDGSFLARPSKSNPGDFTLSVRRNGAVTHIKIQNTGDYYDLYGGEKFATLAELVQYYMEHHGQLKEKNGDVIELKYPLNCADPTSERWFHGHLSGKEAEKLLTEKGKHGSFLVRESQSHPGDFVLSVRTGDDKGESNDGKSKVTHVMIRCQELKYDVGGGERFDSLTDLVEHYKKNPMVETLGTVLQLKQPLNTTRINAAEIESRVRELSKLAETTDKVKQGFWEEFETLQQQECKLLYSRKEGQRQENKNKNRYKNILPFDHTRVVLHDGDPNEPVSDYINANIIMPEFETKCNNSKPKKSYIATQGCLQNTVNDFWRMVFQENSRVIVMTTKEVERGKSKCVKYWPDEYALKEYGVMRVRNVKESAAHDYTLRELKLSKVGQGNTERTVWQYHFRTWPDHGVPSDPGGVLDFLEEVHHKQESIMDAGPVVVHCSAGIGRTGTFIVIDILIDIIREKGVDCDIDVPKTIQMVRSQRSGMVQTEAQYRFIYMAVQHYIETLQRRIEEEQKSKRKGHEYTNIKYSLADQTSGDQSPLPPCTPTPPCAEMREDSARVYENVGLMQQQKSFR
Type: biochemical
Text: SHP2 allosteric inhibition experiment
SHP2 is allosterically activated through the activation of a bis-tyrosyl-phosphorylated peptide and Src Homology 2 (SH2) domains. The activation steps followed result in the release of the auto-inhibition interface, which in turn activates the SHP2 protein tyrosine phosphatase (PTP) and can be used for substrate recognition and reaction catalysis. The SHP2 catalytic activity is monitored by a rapid fluorescent mode with the alternative substrate DiFMUP.
The phosphatase reaction was conducted in 384-well black polystyrene plates (Corning, Cat #3575) with flat bottom, low edge and non-binding surface at room temperature and 25 μl final volume of the following buffer condition: 60 mM HEPES, pH 7.2, 75 mM NaCl, 75 mM KCl, 1 mM EDTA, 0.05% P-20, 5 mM DTT.
The following experiments were conducted to monitor the SHP2 inhibition by the compounds (at concentrations of 0.0003-100 μM) in this invention:
Wherein, incubate 0.5 nM SHP2 with 0.5 μM peptide IRS1_pY1172 (dPEG8) pY1222 (sequence: H2N-LN (pY) IDLDLV (dPEG8) LST (pY) ASINFQK-amide) (SEQ ID NO: 1) (WO2016/203406A1). After incubation at 25° C. for 30-60 minutes, the alternative substrate DiFMUP (Invitrogen, cat #D6567) was added to the reaction and incubated at 25° C. for 30 minutes. The reaction was then carefully […] by adding 5 μL of a 160 μM bpV (Phen) solution (Enzo Life Sciences cat #ALX-270-204). The fluorescence signal was monitored using a microplate reader (VARIOSKAN LUX, Thermo) with excitation and emission wavelengths of 340 nm and 450 nm, respectively. The inhibitory dose-response curve is analyzed using a standardized IC50 regression curve based on control-based normalization.
`Cc1csc(-c2cccc(Sc3cnc(N4CCC5(CC4)CO[C@@H](C)[C@H]5N)cn3)c2Cl)n1` [Example 18] showed an IC50 of 7.93 nM.
In the case of `C[C@@H]1OCC2(CCN(c3cnc(Sc4cccc(-c5nc(C#N)co5)c4Cl)cn3)CC2)[C@@H]1N` [Example 27], the IC50 is reported as 3.51 nM.
With `C[C@@H]1OCC2(CCN(c3cnc(Sc4cccc(-c5nccs5)c4Cl)cn3)CC2)[C@@H]1N` [Example 34] the IC50 was 5.34 nM.
Molecule `C[C@@H]1OCC2(CCN(c3cnc(Sc4cccc(NC(=O)c5cc6n(n5)CCC6)c4Cl)cn3)CC2)[C@@H]1N` [Example 39] has an IC50 of 8.3 nM.
Work on `C[C@@H]1OCC2(CCN(c3cnc(Sc4cccc(-c5cnccn5)c4Cl)c(N)n3)CC2)[C@@H]1N` [Example 8] yielded an IC50 of 5.12 nM.
Work on `C[C@@H]1OCC2(CCN(c3cnc(Sc4cccc(-c5nc(C#N)co5)c4Cl)cn3)CC2)[C@@H]1N` [Example 15] yielded an IC50 of 4.06 nM.
Work on `C[C@@H]1OCC2(CCN(c3cnc(Sc4cccc(-c5ccn(C)n5)c4Cl)cn3)CC2)[C@@H]1N` [Example 5] yielded an IC50 of 2.12 nM.
Molecule `Cc1coc(-c2cccc(Sc3cnc(N4CCC5(CC4)CO[C@@H](C)[C@H]5N)cn3)c2Cl)n1` [Example 24] has an IC50 of 2.41 nM.
`C[C@@H]1OCC2(CCN(c3cnc(Sc4cccc(NC(=O)c5ccccc5O)c4Cl)cn3)CC2)[C@@H]1N` [Example 37] showed an IC50 of 9.01 nM.
In the case of `C[C@@H]1OCC2(CCN(c3cnc(Sc4cccc(N5C(=O)C6CC6C5=O)c4Cl)cn3)CC2)[C@@H]1N` (stereo partly shown) [Example 31], the IC50 is reported as 7.91 nM.
Work on `C[C@@H]1OCC2(CCN(c3cnc(Sc4cccc(-c5cnn(CCO)c5)c4Cl)cn3)CC2)[C@@H]1N` [Example 42] yielded an IC50 of 3.4 nM.
`C[C@@H]1OCC2(CCN(c3cnc(Sc4ccnc(-c5cnccn5)c4Cl)cn3)CC2)[C@@H]1N` [Example 7] gave an IC50 of 41.6 nM.
`C[C@@H]1OCC2(CCN(c3cnc(Sc4cccc(NC(=O)c5cc(F)c(F)cc5Cl)c4Cl)cn3)CC2)[C@@H]1N` [Example 13] gave an IC50 of 5.88 nM.
`C[C@@H]1OCC2(CCN(c3cnc(Sc4cccc(-c5cnn6cccnc56)c4Cl)cn3)CC2)[C@@H]1N` [Example 23] showed an IC50 of 3.28 nM.
In the case of `C[C@@H]1OCC2(CCN(c3cnc(Sc4cccc(NC(=O)c5c(O)nc6ccccn6c5=O)c4Cl)cn3)CC2)[C@@H]1N` [Example 36], the IC50 is reported as 6.42 nM.
Work on `CCn1ccc(-c2cccc(Sc3cnc(N4CCC5(CC4)CO[C@@H](C)[C@H]5N)cn3)c2Cl)n1` [Example 25] yielded an IC50 of 1.74 nM.
`C[C@@H]1OCC2(CCN(c3cnc(Sc4cccc(NC(=O)c5ccccc5C(=O)O)c4Cl)cn3)CC2)[C@@H]1N` [Example 22] was tested, and the IC50 was 1.72 nM.
`C[C@@H]1OCC2(CCN(c3cnc(Sc4cccc(-c5nc(C(N)=O)co5)c4Cl)cn3)CC2)[C@@H]1N` [Example 19] was tested, and the IC50 was 1.95 nM.
In the case of `C[C@@H]1OCC2(CCN(c3cnc(Sc4cccc(NC(=O)c5ncccn5)c4Cl)cn3)CC2)[C@@H]1N` [Example 35], the IC50 is reported as 2.91 nM.
Molecule `C[C@@H]1OCC2(CCN(c3cnc(Sc4cccc(-c5ncccn5)c4Cl)cn3)CC2)[C@@H]1N` [Example 9] has an IC50 of 6.61 nM.
`C[C@@H]1OCC2(CCN(c3cnc(Sc4cccc(NC(=O)c5c(O)nc6n(c5=O)CCCC6)c4Cl)cn3)CC2)[C@@H]1N` [Example 11] was tested, and the IC50 was 0.31 nM.
`C[C@@H]1OCC2(CCN(c3cnc(Sc4cccc(-c5cnccn5)c4Cl)cn3)CC2)[C@@H]1N` [Example 6] was tested, and the IC50 was 1.31 nM.
Work on `C[C@@H]1OCC2(CCN(c3cnc(Sc4cccc(NC(=O)c5cccc(F)c5Cl)c4Cl)cn3)CC2)[C@@H]1N` [Example 10] yielded an IC50 of 5.1 nM.
With `C[C@@H]1OCC2(CCN(c3cnc(Sc4cccc(Nc5cnn(C)c5)c4Cl)cn3)CC2)[C@@H]1N` [Example 44] the IC50 was 7.3 nM.
With `C[C@@H]1OCC2(CCN(c3cnc(Sc4cccc(Nc5cnccn5)c4Cl)cn3)CC2)[C@@H]1N` [Example 2] the IC50 was 2.71 nM.
`C[C@@H]1OCC2(CCN(c3cnc(Sc4cccc(-c5cnc6[nH]ccc6n5)c4Cl)cn3)CC2)[C@@H]1N` [Example 41] was tested, and the IC50 was 6.2 nM.
Work on `CCn1cc(-c2cccc(Sc3cnc(N4CCC5(CC4)CO[C@@H](C)[C@H]5N)cn3)c2Cl)cn1` [Example 40] yielded an IC50 of 4.4 nM.
For `C[C@@H]1OCC2(CCN(c3cnc(Sc4cccc(-c5cccs5)c4Cl)cn3)CC2)[C@@H]1N` [Example 28], the IC50 was 9.4 nM.
`C[C@@H]1OCC2(CCN(c3cnc(Sc4cccc(NC(=O)c5ccn(C)n5)c4Cl)cn3)CC2)[C@@H]1N` [Example 12] showed an IC50 of 3.59 nM.
In the case of `C[C@@H]1OCC2(CCN(c3cnc(Sc4cccc(-c5nc(C(=O)O)co5)c4Cl)cn3)CC2)[C@@H]1N` [Example 20], the IC50 is reported as 1.27 nM.
With `C[C@@H]1OCC2(CCN(c3cnc(Sc4cccc(-c5cnc6ccnn6c5)c4Cl)cn3)CC2)[C@@H]1N` [Example 29] the IC50 was 6.62 nM.
With `C[C@@H]1OCC2(CCN(c3cnc(Sc4cccc(-c5nc6ccccc6o5)c4Cl)cn3)CC2)[C@@H]1N` [Example 14] the IC50 was 9.24 nM.
`C[C@@H]1OCC2(CCN(c3cnc(Sc4cccc(-c5ncco5)c4Cl)cn3)CC2)[C@@H]1N` [Example 3] was tested, and the IC50 was 1.26 nM.
Molecule `Cc1ncsc1-c1cccc(Sc2cnc(N3CCC4(CC3)CO[C@@H](C)[C@H]4N)cn2)c1Cl` [Example 16] has an IC50 of 4.9 nM.
In the case of `C[C@@H]1OCC2(CCN(c3cnc(Sc4cccc(NC(=O)c5cc(Cl)ccc5O)c4Cl)cn3)CC2)[C@@H]1N` [Example 38], the IC50 is reported as 9.41 nM.
Work on `C[C@@H]1OCC2(CCN(c3cnc(Sc4cccc(NC(=O)c5cc6n(n5)CCCC6)c4Cl)cn3)CC2)[C@@H]1N` [Example 30] yielded an IC50 of 6.45 nM.
For `C[C@@H]1OCC2(CCN(c3cnc(Sc4cccc(-c5cn6ccnc6cn5)c4Cl)cn3)CC2)[C@@H]1N` [Example 26], the IC50 was 6.33 nM.
In the case of `C[C@@H]1OCC2(CCN(c3cnc(Sc4cccc(N5CCCC5)c4Cl)cn3)CC2)[C@@H]1N` [Example 4], the IC50 is reported as 7.88 nM.
`C[C@@H]1OCC2(CCN(c3cnc(Sc4cccc(-c5ccn6nccc6n5)c4Cl)cn3)CC2)[C@@H]1N` [Example 32] gave an IC50 of 2.82 nM.
`C[C@@H]1OCC2(CCN(c3cnc(Sc4cccc(-c5ccc(C#N)o5)c4Cl)cn3)CC2)[C@@H]1N` [Example 21] showed an IC50 of 6.01 nM.
`C[C@@H]1OCC2(CCN(c3cnc(Sc4cccc(-c5nc(C#N)cs5)c4Cl)cn3)CC2)[C@@H]1N` [Example 17] showed an IC50 of 4.35 nM.
`C[C@@H]1OCC2(CCN(c3cnc(Sc4cccc(Nc5ncccn5)c4Cl)cn3)CC2)[C@@H]1N` [Example 43] gave an IC50 of 7.5 nM.
`C[C@@H]1OCC2(CCN(c3cnc(Sc4cccc(N5CCCC5=O)c4Cl)cn3)CC2)[C@@H]1N` [Example 1] was tested, and the IC50 was 7.69 nM.
